This is an account of results in PMC12736570, “The Absorption, Distribution, Excretion, and In Vitro Hepatic Microsomal Metabolism of the Novel CDK Compound XMD12 in Sprague-Dawley Rats” (Pharmaceutics, 2025).

The structures appear in SMILES notation. Values joined by “and” are separate entries in the source; they are usually repeats but may differ in a detail not shown here. Equal values may be shown once. Read-outs that look alike come from different tables or passages of the source.

For data set [1] the following is noted: cited from earlier work.
Another data set deals with plasma protein. The conditions noted are these: cited from earlier work.
The nature of data set [2]: Plasma pharmacokinetics after single intravenous administration and gastric gavage. It counts as in vivo, Sprague-Dawley rats. The conditions noted are these: for AUC0-t / AUC0-∞ / CL / Cmax / MRT0-t / Tmax / V / t1/2: n = 5. On the procedure: Ten healthy SD rats were divided into two groups, each comprising five rats. Following a 12-h fasting period, the rats in the respective groups were administered XMD12 at dosages of 10 mg/kg via gastric gavage and 2 mg/kg via tail vein injection. The rats were anesthetized with isoflurane, and blood samples of approximately 150 uL were collected via the eye socket vein using capillaries. These samples were obtained prior to dosing (at 0 min) and at intervals of 0.083, 0.25, 0.5, 1, 1.5, 2.5, 4, 6, 8, 12 and 24 h post-dosing. The blood was then placed in centrifuge tubes pre-treated with heparin sodium, centrifuged at 3000 rpm for 10 min, and the resulting supernatant was stored in a refrigerator at −20 °C. The plasma samples underwent processing as per the outlined “Sample Preparation” methods and were analyzed using the specified procedures under “Instrument Conditions” to ascertain XMD12 concentration in the rat plasma at various time points. Utilizing DAS 3.2.8 (BioGuider Co., Shanghai, China), pharmacokinetic software facilitated data processing, computation of pertinent pharmacokinetic parameters, and the creation of blood concentration–time curves for the drug.

Data set [3] can be described thus: Urine and feces excretion study after gastric gavage. It counts as in vivo, Sprague-Dawley rats. The settings on record: gastric gavage 20 mg/kg. On the procedure:
Five male SD rats were housed individually in metabolic cages for adaptation for a day. During this period, urine and feces were collected as blank samples. The following day, the rats were orally administered XMD12 at a dose of 20 mg/kg by gastric gavage. Urine and feces samples were then collected at intervals of 0–4 h, 4–8 h, 8–12 h, 12–24 h, and 24–36 h post-administration. Measurements of volume and weight were recorded for each sample. Employing the outlined procedures, these samples underwent processing and analysis to determine the presence of XMD12 across different time spans within the collected urine and feces samples.

Data set [4] is described as follows: Stability of XMD12 QC samples in rat plasma and liver homogenate. It counts as in vitro ADME. From the text: Our analytical approach adheres to a comprehensive set of validation procedures in accordance with the recommendations outlined in the U.S. Food and Drug Administration’s Bioanalytical Method Validation Guidance (USFDA, 2018). These validation steps encompass a range of critical factors, including method specificity, linearity, sensitivity, carryover effect, accuracy, precision, matrix effect, recovery, dilution integrity, and stability. In assessing the method’s selectivity, we initiated the process by comparing chromatograms obtained from various sample sources. These sources included blank rat plasma, blank rat serum samples spiked with a mixture of standards, and rat plasma samples sourced from pharmacokinetic studies conducted on rats. This evaluation concurrently aided us in identifying and addressing any potential interferences that may occur within the acquisition window of XMD12 and the internal standard (IS). To evaluate linearity, a series of XMD12 concentrations was introduced into blank plasma, allowing us to establish a linear regression equation. The calibration curve (n = 5) was constructed by plotting the ratio of peak areas of XMD12 to IS (y-axis) against the nominal concentration ratio of XMD12 to IS (x-axis), followed by subsequent linear regression analysis. The lower limit of quantification (LLOQ) was defined as the lowest concentration point on the calibration curve that guarantees reliable quantification while maintaining accuracy within the range of 80–120% and precision below 20%. We conducted assessments of intra-day and inter-day precision and accuracy by performing six replicate tests on quality control (QC) samples at concentrations of 3, 120, and 1500 ng/mL over both a single day and a span of three days. Matrix effects and extraction recovery were evaluated through a post-extraction addition approach. Furthermore, we conducted a study on the stability of QC samples with high, medium, and low concentrations under four distinct conditions. […]

The nature of data set [5]: Metabolic stability in rat liver microsome incubation system. It counts as in vitro ADME. The conditions noted are these: rat liver microsomes. As for the experimental part: Rat liver microsomes (CYP450) were introduced into centrifuge tubes containing phosphate buffer. Different concentrations of the test compound were added to the experimental group, while an equal amount of buffer was added to the control group. Following a 10-min pre-incubation, NADPH was introduced to initiate the reaction, and the mixture was then incubated at 37 °C in a water bath for […]. The incubation system was composed of 10 μL of XMD12 substrate (0.5 μg/mL), 5 μL of rat liver microsomes (20 mg/mL), 20 μL of an NADPH generating system at a final concentration of 1 mM, and 465 μL of phosphate-buffered saline (pH 7.4). The NADPH generating system was prepared by mixing with 5 μL of a complementary Mix solution prior to use. This Mix solution contained MgCl2, EDTA, glucose-6-phosphate, glucose-6-phosphate dehydrogenase, and oxidized nicotinamide adenine dinucleotide phosphate (NADP^+). At intervals of 0, 5, 15, 30, 45, 60, 90, and 120 min, the reaction was halted by adding a cold acetonitrile solution containing the internal standard at a 1:2 ratio. This mixture underwent vigorous vortexing for 3 min before being centrifuged at 14,000 rpm for 10 min. The resulting supernatant was dried using nitrogen gas and subsequently reconstituted with 50% acetonitrile. After thorough vortexing for 2 min, the solution underwent a second centrifugation at 14,000 rpm for 10 min, and the supernatant was then injected into LC-MS/MS for analysis.
A general note: Liver microsomes are vesicles of endoplasmic reticulum, rich in cytochrome P450 enzymes.

Data set [6] in a line: Tissue distribution study after gastric gavage. It counts as in vivo, Sprague-Dawley rats. The settings on record: gastric gavage 20 mg/kg. As for the experimental part:
Following a 12-h fasting period, 25 SD rats were randomly divided into 5 groups, each comprising 5 rats. These rats were administered the drug at a dosage of 20 mg/kg through gastric gavage. […] Blood was drawn from the abdominal aorta to ensure minimal residual blood within the rats, followed by euthanasia. A variety of tissues including the heart, liver, spleen, lungs, kidneys, stomach, small intestine, fat, muscles, and brain were then harvested. After weighing, all samples were stored in a freezer at −80 °C. The subsequent processing and analysis followed the described methods, aiming to determine the concentration of XMD12 in each tissue sample at different time intervals.

Setting [7] is: p.o. 10 mg∙kg^−1 (gastric gavage), SD rats.

With `CCN1CCN(Cc2ccc(Nc3ncc(F)c(-c4cc(F)c5nc(C)n(C(C)C)c5c4)n3)nc2)CC1` [Abemaciclib], the elimination half-life in data set [1] was 17 to 38 h. Further, in data set [1] (human, in vivo), the oral bioavailability was 45% and the Tmax (in general, the time at which the peak concentration occurs) was “under 8 h”. Besides, in data set [1] (reported in humans), the fecal excretion is reported as 81%. For the same compound, the plasma protein binding in the data set on plasma protein (plasma) is reported as 96.3%.

On to `CC(=O)c1c(C)c2cnc(Nc3ccc(N4CCNCC4)cn3)nc2n(C2CCCC2)c1=O` [Palbociclib], for which, in data set [1], the Tmax was 6 to 12 h, the elimination half-life is 24 to 34 h and the volume of distribution was roughly 2800 L. Moreover, the “volume of distribution (Vd)” value in data set [1] (reported in humans) was ~ 2800 L. Further, in the data set on plasma protein, the plasma protein binding is recorded as 85.3%.

`CN(C)C(=O)c1cc2cnc(Nc3ccc(N4CCNCC4)cn3)nc2n1C1CCCC1` [Ribociclib]: in data set [1] (human, in vivo), the oral bioavailability is 65.8%, the Tmax was 1 to 5 h, the elimination half-life was 30 to 55 h and the fecal excretion is listed as 69.1%. Besides, the “volume of distribution (Vd)” value in data set [1] (human, in vivo) is 1090 L.

Take `COc1cc(F)ccc1-c1nc(Nc2cccc(N3CCOCC3)c2)ncc1F` [XMD12]: the plasma concentration entry is given as “approaching the LLOQ” in data set [2] (gastric gavage 10 mg/kg, within 8 h); “below the lower limit of quantification (LLOQ)” in data set [2] (i.v. 2 mg/kg, by 8 h); 59.88 ng/mL in data set [2] (i.v. 2 mg/kg, within 30 min). For the same compound, the AUC0-t in data set [2] (i.v. 2 mg∙kg^−1, SD rats) is 357.21 ± 66.60 ng·h/mL; in data set [2] (setting [7]) it was 117.78 ± 28.97 ng·h/mL. In addition, the “AUC0-∞” value is 360.03 ± 66.00 ng·h/mL in data set [2] (i.v. 2 mg∙kg^−1, SD rats) and 120.06 ± 30.19 ng·h/mL in data set [2] (setting [7]). The CL in data set [2] (i.v. 2 mg∙kg^−1, SD rats) is 94.8 ± 15.8 mL/min/kg; in data set [2] (setting [7]), 1444 ± 278.7 mL/min/kg. The Cmax (usually the peak of the concentration-time curve) came to 827.00 ± 191.30 ng/mL in data set [2] (i.v. 2 mg∙kg^−1, SD rats) and 38.26 ± 10.90 ng/mL in data set [2] (setting [7]). Also, the MRT0-t was found to be 0.74 ± 0.08 h in data set [2] (i.v. 2 mg∙kg^−1, SD rats) and 2.475 ± 0.344 h in data set [2] (setting [7]). The Tmax is listed as 0.083 h in data set [2] (i.v. 2 mg∙kg^−1, SD rats) and 1.300 ± 0.758 h in data set [2] (setting [7]). Further, the V came out at 12.29 ± 3.98 L/kg in data set [2] (i.v. 2 mg∙kg^−1, SD rats) and 150.59 ± 34.37 L/kg in data set [2] (setting [7]). Moreover, the t1/2 was 1.47 ± 0.29 h in data set [2] (i.v. 2 mg∙kg^−1, SD rats) and 1.21 ± 0.16 h in data set [2] (setting [7]). Further, in data set [2] (p.o. 10 mg/kg vs i.v. 2 mg/kg), the “peak concentration after gastric gavage relative to intravenous levels” value is “below 5%”. In addition, the “F (bioavailability)” value in data set [2] (p.o. 10 mg∙kg^−1 vs i.v. 2 mg∙kg^−1, SD rats) was determined as 6.67%. In addition, the plasma half-life in data set [2] (rat plasma, route not stated) is recorded as 1 h. Besides, in data set [3], the “interval of rapid fecal elimination” value was in the range of 12 to 24 h. In addition, the “peak urinary elimination window” value in data set [3] was 12 to 24 h. Besides, in data set [3] (0–36 h), the “cumulative fecal excretion (of the administered dose)” value is reported as 62.36% ± 19.97%. Also, the “cumulative urinary excretion rate” value in data set [3] (0–36 h, 20 mg/kg) is 0.0068% and 0.0068% ± 0.0028%. For the same compound, the “stability, Accuracy” value is recorded as 100.93% in data set [4] (liver, nominal 30.0 ng∙mL^−1, 6 h at room temperature); 97.53% in data set [4] (liver, nominal 30.0 ng∙mL^−1, 15 d, −80 °C); 100.80% in data set [4] (liver, nominal 30.0 ng∙mL^−1, autosample at ambient temperature for 6 h); 100.47% in data set [4] (liver, nominal 30.0 ng∙mL^−1, freeze–thaw (3 circles)); 101.93% in data set [4] (liver, nominal 800.0 ng∙mL^−1, 6 h at room temperature); 99.40% in data set [4] (liver, nominal 800.0 ng∙mL^−1, 15 d, −80 °C). In addition, the “stability, Accuracy” value turned out to be 99.78% in data set [4] (liver, nominal 800.0 ng∙mL^−1, freeze–thaw (3 circles)); 101.56% in data set [4] (liver, nominal 1600.0 ng∙mL^−1, 6 h at room temperature); 101.63% in data set [4] (liver, nominal 1600.0 ng∙mL^−1, 15 d, −80 °C); 100.94% in data set [4] (liver, nominal 1600.0 ng∙mL^−1, autosample at ambient temperature for 6 h); 97.75% in data set [4] (liver, nominal 1600.0 ng∙mL^−1, freeze–thaw (3 circles)); 105.58% in data set [4] (plasma, nominal 5 ng∙mL^−1, 6 h at room temperature). Also, the “stability, Accuracy” value in data set [4] (plasma, nominal 5 ng∙mL^−1, 15 d, −80 °C) worked out at 94.20%; in data set [4] (plasma, nominal 5 ng∙mL^−1, autosample at ambient temperature for 6 h), 92.16%; in data set [4] (plasma, nominal 5 ng∙mL^−1, freeze–thaw (3 circles)), 97.10%; in data set [4] (plasma, nominal 90 ng∙mL^−1, 6 h at room temperature), 108.60%; in data set [4] (plasma, nominal 90 ng∙mL^−1, 15 d, −80 °C), 93.76%; in data set [4] (plasma, nominal 90 ng∙mL^−1, autosample at ambient temperature for 6 h), 92.44%. Also, the “stability, Accuracy” value in data set [4] (plasma, nominal 90 ng∙mL^−1, freeze–thaw (3 circles)) is recorded as 107.22%; in data set [4] (plasma, nominal 800 ng∙mL^−1, 6 h at room temperature) it was 110.80%; in data set [4] (plasma, nominal 800 ng∙mL^−1, 15 d, −80 °C), 102.22%; in data set [4] (plasma, nominal 800 ng∙mL^−1, autosample at ambient temperature for 6 h), 90.02%; in data set [4] (plasma, nominal 800 ng∙mL^−1, freeze–thaw (3 circles)), 106.80%. Further, the parent compound remaining in data set [5] (5 min incubation, 37 °C, NADPH) stood at 68.8%; in data set [5] (45 min incubation) it was 20%; in data set [5] (120 min incubation), 13%. The metabolic rate in data set [5] (120 min) was found to be 87%. For the same compound, the “intrinsic clearance (CLint)” value in data set [5] (CLint = k × (V/P), V 500 μL, P 0.1 mg) was 98.5 μL/min/mg protein. For the same compound, the “degradation rate constant (k)” value in data set [5] (regression of ln remaining percentage vs incubation time) was determined as 0.0197 min⁻¹. For the same compound, the “time to peak drug concentration in gastrointestinal tissues (stomach and intestines)” value in data set [6] was 0.5 to 1 h. Also, the brain concentration in data set [6] (1 h) is given as 930.17 ± 762.76 ng/g. For the same compound, in data set [6] (1 h, 20 mg/kg), the liver peak concentration was 24,768 ± 2436.62 ng/g and 24,768 ng/g. The compound also gave a liver concentration in data set [6] (5 h) of 2241.9 ± 1193.07 ng/g. In addition, the “liver concentration as percent of the peak value” in data set [6] (5 h post-dosing) was 9%. Also, the “concentration in all tissues as percent of peak levels” value in data set [6] (by 5 h) is listed as “below 10%”.
